Patent US20050079594A1, “Method of removing a biofilm” (Karine Marion, priority 2002, published 2005)

Tests used:
biofilm 1 = assay: Area covered by biofilm 1 (staining, image analysis); assay type: cell-based
Method: The method was tested and implemented experimentally on five types of biofilm; biofilms 1, 2, 3 and 5 were obtained using an in vitro model that mimics the hemodialysis generator: • biofilm 1: enriched with nutrients for accelerated growth (3 days) moderate thickness (about 10^5 CFU/cm^2), very rich in slime; • biofilm 2: not enriched with nutrients having grown over 1 month, equivalent to those actually encountered in dialysis generators (about 10^3 CFU/cm^2) very rich in scale crystals; • biofilm 3: enriched with nutrients for accelerated growth (5 days), thick (about 10^9 CFU/cm^2) very rich in slime; • biofilm 4: specimen of tubing conveying water for hemodialysis, taken from a center, covered with a biofilm of about 10^3 CFU/cm^2 but having grown over more than one year; and • biofilm 5: enriched with nutrients for accelerated growth, having grown in a “preventive” model over three weeks. Production of the In Vitro Model
A 250 ml reactor vessel was filled with a nonsterile dialysate, prepared by diluting sterile apyrogenic hemodialysis concentrates (Clearflex® from Bieffe Medical) with nonsterile osmosed water containing Pseudomonas putida, Pseudomonas fluorescens and Flavimonas orizibitans, produced continuously in the laboratory.
The contaminating medium was circulated in a closed circuit in a loop of silicon tubing 1.5 meters in length and 5 mm inside diameter with a flow rate of 500 ml/min by a peristaltique pump. All the tubing and the reactor vessel were sterilized beforehand in an autoclave at 121° C. for 30 minutes. Thus, the dialysate naturally contaminated by the bacteria in the water was the only source of microorganisms.
The entire system was maintained at a temperature of 37° C. by a hotplate on which the reactor vessel was placed.
In the case of biofilms 1, 3 and 5, the bacterial growth and consequently the development of the biofilm were accelerated by adding an LB culture medium diluted 50-fold, i.e. an LB culture medium diluted to […] and topped up with a flow equal to 1/10th of that of the dialysate. The dialysate and culture medium top-up flow rates, regulated by a peristaltic pump, were 5 and 0.5 ml/minute, respectively.
The tubings covered with biofilms 1, 2 and 3 were cut into segments 5 cm in length. For screening on biofilms 1 and 2, each segment for undergoing one of the various treatments to be investigated was selected by drawing lots. Control specimens taken at random from the silicon loop were kept untreated.
The tubing segments to be treated were attached to the descending branch of a set-up consisting of two tubings—one ascending and the other descending, a peristaltic pump and a water bath (for treatments carried out a temperature above 20° C.). The product to be tested in “recirculation” mode was dissolved in a 100 ml flask and driven by the peristaltic pump at a rate of 500 ml/min in a closed circuit through the tubings for a duration corresponding to the contact times given in table II. The product to be tested in “static” mode was dissolved in a 100 ml flask and driven by the peristaltic pump until the tubings had been filled; the pump was then stopped and the product left in stasis for the desired contact time. After each treatment by a given product, the tubing specimens were rinsed for five minutes with osmosed water.
The control and treated biofilms were stained: • either with a 0.25% crystal violet solution; • or with a Baclight® fluorochrome solution (Syto 9 and propidium iodide). The viable bacteria show up green while the dead bacteria show up yellow or red.
The silicon tubing specimens covered with stained biofilms were attached to glass slides and observed under an optical microscope, the microscope being connected to a camera and to “Scion Images” image analysis software. […]

biofilm 2 = assay: Area covered by biofilm 2 (staining, image analysis); assay type: cell-based; details: Treat. No. 7, 3%, 37 °C, 5 min, Recirc
Method: The method was tested and implemented experimentally on five types of biofilm; biofilms 1, 2, 3 and 5 were obtained using an in vitro model that mimics the hemodialysis generator: • biofilm 1: enriched with nutrients for accelerated growth (3 days) moderate thickness (about 10^5 CFU/cm^2), very rich in slime; • biofilm 2: not enriched with nutrients having grown over 1 month, equivalent to those actually encountered in dialysis generators (about 10^3 CFU/cm^2) very rich in scale crystals; • biofilm 3: enriched with nutrients for accelerated growth (5 days), thick (about 10^9 CFU/cm^2) very rich in slime; • biofilm 4: specimen of tubing conveying water for hemodialysis, taken from a center, covered with a biofilm of about 10^3 CFU/cm^2 but having grown over more than one year; and • biofilm 5: enriched with nutrients for accelerated growth, having grown in a “preventive” model over three weeks. […] Thus, several (6 to 10) photographs of the same specimen were taken, the stained area was evaluated quantitatively by the image analysis software and a mean covered area value per specimen was calculated. This mean value was compared with the covered area of the untreated control specimens: a percentage reduction in covered area was then calculated.

O=C(O)CC(O)(CC(=O)O)C(=O)O [Citric acid]
Result (removal; % covered area reduction) (biofilm 1; Treat. No. 26, 3%, RT, 40 min, Recirc): . (No removal 0) | Result (removal; % covered area reduction) (biofilm 2): **** (Excellent removal 75-99%)

[K+].[OH-] [KOH]
Result (removal; % covered area reduction) (biofilm 1; Treat. No. 13, 0.02N, RT, 40 min, Stat): ** (Moderate removal 25-50%) | Result (removal; % covered area reduction) (biofilm 1; Treat. No. 15, 0.02N, RT, 40 min, Recirc): ** (Moderate removal 25-50%) | Result (removal; % covered area reduction) (biofilm 1; Treat. No. 21, 0.02N, RT, 1 h, Recirc): *** (Good removal 50-75%) | Result (removal; % covered area reduction) (biofilm 1; Treat. No. 22, 0.02N, RT, 24 h, Recirc): **** (Excellent removal 75-99%) | Result (removal; % covered area reduction) (biofilm 1; Treat. No. 27, 0.002N, RT, 40 min, Recirc): ** (Moderate removal 25-50%) | Result (removal; % covered area reduction) (biofilm 1; Treat. No. 35, 0.001N, RT, 40 min, Recirc): ** (Moderate removal 25-50%)

[Na+].[OH-] [NaOH]
Result (removal; % covered area reduction) (biofilm 1; Treat. No. 12, 0.01N, RT, 40 min, Stat): * (Poor removal 0-25%)

[O-][Cl+3]([O-])([O-])O [Perchlo ac, Perchloric acid]
Result (removal; % covered area reduction) (biofilm 1; Treat. No. 11, 0.05%, RT, 40 min, Stat): . (No removal 0)

CCCCCCCCCCCCOS(=O)(=O)[O-].[Na+] [SDS, Sodium dodecyl sulfate]
Result (removal; % covered area reduction) (biofilm 1; Treat. No. 1, 5%, RT, 40 min, Stat): ** (Moderate removal 25-50%) | Result (removal; % covered area reduction) (biofilm 1; Treat. No. 8, 5%, RT, 40 min, Recirc): */.

O=C(O)C(Cl)(Cl)Cl [TCA, Trichloroacetic acid]
Result (removal; % covered area reduction) (biofilm 1; Treat. No. 14, 0.25%, RT, 40 min, Stat): . (No removal 0)

Triton
Result (removal; % covered area reduction) (biofilm 1; Treat. No. 2, 5%, RT, 40 min, Stat): * (Poor removal 0-25%) | Result (removal; % covered area reduction) (biofilm 1; Treat. No. 16, 5%, RT, 40 min, Recirc): . (No removal 0)

Trypsin
Result (removal; % covered area reduction) (biofilm 1; Treat. No. 6, EDTA IX, RT, 40 min, Stat): . (No removal 0) | Result (removal; % covered area reduction) (biofilm 1; Treat. No. 7, 0.25%, 37 °C, 40 min, Stat): ** (Moderate removal 25-50%) | Result (removal; % covered area reduction) (biofilm 1; Treat. No. 29, 0.25%, 37 °C, 40 min, Recirc): . (No removal 0) | Result (removal; % covered area reduction) (biofilm 1; Treat. No. 37, 1%, 37 °C, 40 min, Recirc): * (Poor removal 0-25%)

B1: Thermolys: enzyme, Sigma (protein, UniProt P00800 233-548, looked up)
Thermolysin: ITGTSTVGVGRGVLGDQKNINTTYSTYYYLQDNTRGNGIFTYDAKYRTTLPGSLWADADNQFFASYDAPAVDAHYYAGVTYDYYKNVHNRLSYDGNNAAIRSSVHYSQGYNNAFWNGSQMVYGDGDGQTFIPLSGGIDVVAHELTHAVTDYTAGLIYQNESGAINEAISDIFGTLVEFYANKNPDWEIGEDVYTPGISGDSLRSMSDPAKYGDPDHYSKRYTGTQDNGGVHINSGIINKAAYLISQGGTHYGVSVVGIGRDKLGKIFYRALTQYLTPTSNFSQLRAAAVQSATDLYGSTSQEVASVKQAFDAVGVK
Result (removal; % covered area reduction) (biofilm 1; Treat. No. 33, 2 mg/50 ml, 37 °C, 40 min, Recirc): ** (Moderate removal 25-50%)
